# Legend:
# KAT5 = target: T1, KAT5 (Homo sapiens, UniProt Q92993); assay: KAT5 enzyme inhibition assay (SAMDI mass spectrometry); format: biochemical; conditions: His-TEV-FL KAT5-Flag enzyme construct
# T1 construct: His-TEV tag (N, cleaved yes); made in house
# KAT6A = target: T2, KAT6A (Homo sapiens, UniProt Q92794); assay: KAT6A enzyme inhibition assay (SAMDI mass spectrometry); format: biochemical; conditions: His-TEV-KAT6A 501-784 enzyme construct
# T2 construct: His-TEV tag (N, cleaved yes); made in house
# T2 sequence (Q92794 with tags, fused parts or gaps): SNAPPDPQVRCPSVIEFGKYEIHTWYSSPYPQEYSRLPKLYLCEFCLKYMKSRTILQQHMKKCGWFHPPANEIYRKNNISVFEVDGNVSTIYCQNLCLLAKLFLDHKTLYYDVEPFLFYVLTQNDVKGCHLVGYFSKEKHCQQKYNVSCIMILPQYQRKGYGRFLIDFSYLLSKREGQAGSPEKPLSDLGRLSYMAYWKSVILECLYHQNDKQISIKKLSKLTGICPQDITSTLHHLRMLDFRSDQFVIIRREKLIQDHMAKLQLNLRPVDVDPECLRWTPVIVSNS
# T1 sequence (Q92993 with tags, fused parts or gaps): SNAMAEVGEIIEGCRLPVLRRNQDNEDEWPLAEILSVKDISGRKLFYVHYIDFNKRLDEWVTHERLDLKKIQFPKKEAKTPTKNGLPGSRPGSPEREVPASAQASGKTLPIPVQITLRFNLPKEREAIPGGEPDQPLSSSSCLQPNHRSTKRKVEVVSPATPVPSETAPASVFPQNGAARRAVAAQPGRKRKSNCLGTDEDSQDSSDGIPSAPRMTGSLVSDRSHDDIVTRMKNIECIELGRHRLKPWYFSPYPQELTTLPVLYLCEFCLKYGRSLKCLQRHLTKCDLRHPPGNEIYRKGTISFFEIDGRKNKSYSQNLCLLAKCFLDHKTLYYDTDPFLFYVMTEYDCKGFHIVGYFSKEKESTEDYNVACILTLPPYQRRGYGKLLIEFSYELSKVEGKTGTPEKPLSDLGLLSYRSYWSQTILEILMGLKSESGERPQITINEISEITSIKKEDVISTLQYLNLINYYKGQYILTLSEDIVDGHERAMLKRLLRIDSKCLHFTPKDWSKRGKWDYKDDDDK
Compound,IC50 (KAT5) [µM],IC50 (KAT6A) [µM]
Cc1c(-c2ccccc2)ccc(F)c1C(=O)NNS(=O)(=O)C1CCC1 [Compound I-243],> 100,> 100
O=C(NNS(=O)(=O)c1ccc2ccccc2c1)c1ccccc1 [Compound I-146],> 100,
Cc1cc(-c2ccccc2)cc(C(=O)NNS(=O)(=O)C2CCN(C(=O)c3ccccc3)C2)c1F (stereo not drawn) [Compound I-32],10 to 50,≤ 10
Cc1cc(-c2ccccc2)cc(C(=O)NS(=O)(=O)c2ccccc2)c1F [Compound I-168],50 to 100,50 to 100
Cc1cc(-c2ccccc2)cc(C(=O)NNS(=O)(=O)Cc2ccccc2)c1F [Compound I-9],≤ 10,≤ 10
CCc1cc(-c2ccccc2)cc(C(=O)NNS(=O)(=O)c2ccccc2)c1F [Compound I-216],≤ 10,≤ 10
Cc1cccc(C(=O)NNS(=O)(=O)C2CNC2)c1F [Compound I-203],> 100,> 100
Cc1cccc(S(=O)(=O)NNC(=O)c2cc(-c3ccccc3)ccc2F)c1 [Compound I-131],> 100,≤ 10
COc1ccccc1S(=O)(=O)NNC(=O)c1cc(-c2ccccc2)cc(C)c1F [Compound I-176],≤ 10,≤ 10
CNC(=O)c1ccc(S(=O)(=O)NNC(=O)c2cc(-c3ccccc3)cc(C)c2F)cc1 [Compound I-244],10 to 50,≤ 10
Cc1cc(-c2ccccc2)cc(C(=O)NNS(=O)(=O)CC2CCN(C(=O)OC(C)(C)C)CC2)c1F [Compound I-224],≤ 10,≤ 10
Cc1cc(-c2ccccc2)cc(C(=O)NNS(=O)(=O)C2CN(CCO)C2)c1F [Compound I-42],50 to 100,10 to 50
COc1ccc(S(=O)(=O)NNC(=O)c2c(F)ccc(-c3ccccc3)c2C)cc1 [Compound I-186],50 to 100,10 to 50
"Cc1cc(-c2ccccc2)cc(C(=O)NNS(=O)(=O)C2CN(C(=O)OC(C)(C)C)C2)c1F [Compound I-119, tert-Butyl 3-((2-(4-fluoro-5-methyl-[1,1′-biphenyl]-3-carbonyl)hydrazinyl)sulfonyl)azetidine-1-carboxylate]",10 to 50,10 to 50
Cc1cc(-c2ccccc2)cc(C(=O)NNS(=O)(=O)C2CCN(C(C)C)CC2)c1F [Compound I-92],> 100,> 100
O=C(NNS(=O)(=O)c1ccccc1)c1cc(-c2ccccc2)cc2cc[nH]c12 [Compound I-14],10 to 50,10 to 50
Cc1cccc(S(=O)(=O)NNC(=O)c2cc(-c3ccccc3)cc(C)c2F)c1 [Compound I-188],≤ 10,≤ 10
COc1cccc(C(=O)NNS(=O)(=O)c2ccccc2)c1 [Compound I-182],> 100,
COc1ccc(S(=O)(=O)NNC(=O)c2ccccc2F)cc1 [Compound I-179],> 100,
O=C(NNS(=O)(=O)c1ccccc1F)c1ccccc1 [Compound I-163],> 100,
O=C(NNS(=O)(=O)c1ccccc1)c1ccc(Cl)cc1 [Compound I-181],> 100,
Cc1cc(-c2ccccc2)cc(C(=O)NNS(=O)(=O)c2cccc(C3CC3)c2)c1F [Compound I-201],> 100,
O=C(NNS(=O)(=O)c1ccc2ccccc2c1)c1ccccc1F [Compound I-238],50 to 100,
O=C(NNS(=O)(=O)c1ccccc1)c1cccc(F)c1 [Compound I-191],> 100,
Cc1cc(-c2ccccc2)cc(C(=O)NNS(=O)(=O)c2cccc(C(C)C)c2)c1F [Compound I-218],> 100,
Cc1cc(-c2ccccc2)cc(C(=O)NNS(=O)(=O)c2ccccc2)c1F [Compound I-157],≤ 10,

# Further lines, results first:
IC50 (KAT5) [µM],IC50 (KAT6A) [µM],Compound
> 100,> 100,O=C(NNS(=O)(=O)C1CCOCC1)c1cc(Cn2cccn2)cc(Cl)c1F [Compound I-464]
50 to 100,≤ 10,O=C(NNS(=O)(=O)c1ccccc1)c1cc2ccccc2cc1F [Compound I-262]
> 100,> 100,Cc1cc(-c2ccccc2)cc(C(=O)N[C@@H](C#N)C2CCCCC2)c1F [Compound I-257]
> 100,> 100,Cc1cc(C(C)(C)C)cc(C(=O)NNS(=O)(=O)c2ccccc2)c1O [Compound I-462]
10 to 50,10 to 50,O=C(NNS(=O)(=O)CC1CCCNC1)c1cc(-c2ccccc2)cc(Cl)c1F (stereo not drawn) [Compound I-410]
10 to 50,50 to 100,CCc1cc(C)c(F)c(C(=O)NNS(=O)(=O)C2CCCCC2)c1 [Compound I-300]
≤ 10,≤ 10,COCCN1CCC(CS(=O)(=O)NNC(=O)c2cc(-c3ccccc3)cc(C)c2F)CC1 [Compound I-507]
> 100,> 100,CNC(=O)Cn1nc(C)cc1C(=O)NNS(=O)(=O)C1CCCCC1 [Compound I-500]
10 to 50,10 to 50,Cc1cc(-c2cccc(F)c2)cc(C(=O)NNS(=O)(=O)CC2CCCN(C(=O)CCN(C)C)C2)c1F (stereo not drawn) [Compound I-329]
≤ 10,≤ 10,Cc1cc(-c2ccccc2)cc(C(=O)NNS(=O)(=O)c2cccc(C(N)=O)c2)c1F [Compound I-383]
10 to 50,10 to 50,Cc1cccc(-c2cc(Cl)c(F)c(C(=O)NNS(=O)(=O)C3CCCCC3)c2)c1 [Compound I-404]
≤ 10,≤ 10,Cc1cc(-c2cccc(F)c2)cc(C(=O)NNS(=O)(=O)CC2CCCN(C(=O)C3CCC3)C2)c1F (stereo not drawn) [Compound I-274]
> 100,> 100,O=C(NC1CCC1)c1cc(Cl)c(F)c(C(=O)NNS(=O)(=O)C2CCOCC2)c1 [Compound I-488]
> 100,50 to 100,O=C(NNS(=O)(=O)C1CCOCC1)c1cc(CO)cc(Cl)c1F [Compound I-465]
> 100,> 100,O=C(NNS(=O)(=O)c1ccccc1)N1CCCCC1 [Compound I-254]
> 100,> 100,O=C(NNS(=O)(=O)C1CCOCC1)c1cc(Cl)cc(Cl)c1F [Compound I-414]
10 to 50,> 100,Cc1cc(C)c(F)c(C(=O)NNS(=O)(=O)C2CCCCC2)c1 [Compound I-347]
50 to 100,≤ 10,Cc1cc(-c2ccccc2)cc(C(=O)NNS(=O)(=O)c2cccc(C(=O)O)c2)c1F [Compound I-256]
50 to 100,50 to 100,O=C(NNS(=O)(=O)CC1CCCNC1)c1cc(-c2cccc(F)c2)cc(Cl)c1F (stereo not drawn) [Compound I-416]
50 to 100,50 to 100,Cc1cc(-c2cccc(F)c2Cl)cc(C(=O)NNS(=O)(=O)C2CCCCC2)c1F [Compound I-399]
10 to 50,50 to 100,Cc1cc(-c2cccc(Cl)c2F)cc(C(=O)NNS(=O)(=O)CC2CCCCC2)c1F [Compound I-366]
> 100,> 100,Cn1cc2c(C(=O)NNS(=O)(=O)c3ccccc3)cc(-c3ccccc3)cc2n1 [Compound I-345]
> 100,> 100,CCc1cc(Cl)c(F)c(C(=O)NNS(=O)(=O)C2CCOCC2)c1 [Compound I-422]
> 100,,CC(C)n1nc(CNC(=O)CNS(=O)(=O)c2ccccc2)c2ccccc21 [Compound I-525]
≤ 10,,O=C(NNS(=O)(=O)CC1CCOCC1)c1cc(C2CCCO2)cc(Cl)c1F (stereo not drawn) [Compound I-506]

# From US20220267260A1, “COMPOUNDS CONTAINING A SULFONIC GROUP AS KAT INHIBITORS” (Epizyme, Inc., priority 2016, published 2022)
